# Measured values from US20220251109A1, “OXAAZAQUINAZOLINE-7(8H)-KETONE COMPOUND, PREPARATION METHOD THEREFOR AND PHARMACEUTICAL APPLICATION THEREOF” (GENFLEET THERAPEUTICS (SHANGHAI) INC., priority 2019, published 2022).
# Like-named read-outs stand apart in the source and are kept apart here.
# What was measured:
# Format in all cases: cell-based, human
# [1] = test system: A549 cells (Kras G12S mutation); assay: Cell proliferation inhibition experiment, 3D model, CellTiter-Glo (A549); details: A549, 3D sphere plate, 5 days, 2% FBS
# Protocol: (§1) NCI-H358 was a human non-small cell lung cancer cell line with Kras G12C mutation, cultured in 10% FBS RPMI-1640 medium; A549 was a human lung adenocarcinoma cell line with Kras G12S mutation, cultured in 10% FBS F-12K medium. The cells in the logarithmic growth phase was taken, digested with trypsin EDTA, collected and counted, and H358 was adjusted to 1.8E4 cells/ml using 2% FBS RPMI-1640 medium, and A549 was adjusted to 8.9E3 cells/ml using 2% FBS F-12K medium; 800 (45 μl) H358 or 400 (45 μl) A549 cells were seeded in a 384-well sphere plate respectively, cultured overnight to establish a 3D cell model. DMSO was used to prepare 1000× compound 3.16-fold gradient concentration stock solution, and 2% FBS medium was used to dilute 100-fold to 10× compound stock solution. On the second day after cell seeding, 5 μl 10× compound stock solution was added to each cell culture well, the final concentration was 1×, and DMSO content was 0.1%. DMSO was used as the experimental control (control) and 2% FBS medium as the blank control (blank). After the compound and cells were added and cultured for 5 days, 25 μl CellTiter-Glo working solution was added to each well, mixed at 400 rpm and incubated for 30 minutes. After 30 minutes at room temperature, 40 μl of the mixture was transferred to a 384-well plate with a non-transparent white bottom, the luminescence chemiluminescence value was read, and the cells proliferation inhibition rate IR (%)=(RLU control-RLU compound)/(RLU control-RLU blank)×100% was calculated, Prism 6 four-parameter method was used to fit the compound's gradient dilution concentration and the corresponding cell proliferation inhibition rate, and the IC50 value was calculate.
# [2] = test system: MIA PaCa-2 cells (Kras G12C mutation); assay: Cell proliferation inhibition experiment, 3D model, CellTiter-Glo (MIA PaCa-2); details: MIA PaCa-2, 3D sphere plate, 5 days, read-out: MIA-PaCa2 IC50
# Protocol: MIA PaCa2 was a human pancreatic cancer cell line with Kras G12C mutation, cultured in 10% FBS+2.5% Horse serum DMEM medium; A549 was a human lung adenocarcinoma cell line with Kras G12S mutation, cultured in 10% FBS F-12K medium. The cells in the logarithmic growth phase were taken, digested with enzyme EDTA, collected, counted and 200 MIA PaCa-2 or 400 A549 cells were seeded in a 384-well sphere plate respectively, cultured overnight to establish a 3D cell model. DMSO was used to prepare 1000× compound 3.16-fold gradient concentration stock solution, and medium was used to dilute 100-fold to 10× compound stock solution. On the second day after cell seeding, 10× compound stock solution was added to each cell culture well, the final concentration was 1×, and DMSO content was 0.1%. DMSO was used as an experimental control (control), medium as the blank control (blank). After the compound and cells were added and cultured for 5 days, 30 μl CellTiter-Glo working solution was added to each well, mixed and incubated for 30 minutes. After 30 minutes at room temperature, 40 μl of the mixture was transferred to a 384-well plate with a non-transparent white bottom, the luminescence chemiluminescence value was read, and the cells proliferation inhibition rate IR (%)=(RLU control-RLU compound)/(RLU control-RLU blank)×100% was calculated, XLFit four-parameter method was used to fit the compound's gradient dilution concentration and the corresponding cell proliferation inhibition rate, and the IC50 value was calculate.
# [3] = test system: NCI-H358 cells (Kras G12C mutation); assay: Cell proliferation inhibition experiment, 3D model, CellTiter-Glo (NCI-H358); details: NCI-H358, 3D sphere plate, 5 days, 2% FBS
# Protocol: as §1
# [4] = Homo sapiens, MIA PaCa-2, 120 h
IC50 [1] [nM],IC50 [2] [nM],IC50 [3] [nM],"IC50 ([1]; Homo sapiens, A549, 120 h) [nM]","IC50 [2, 4] [nM]","IC50 ([3]; Homo sapiens, NCI-H358, 120 h) [nM]",SMILES
20700,5,2,–,–,–,"C=CC(=O)N1CCN2c3nc(=O)n(-c4c(C)ccnc4C(C)C)c4cc(-c5c(C)ccc6[nH]ncc56)c(Cl)c(c34)OC[C@H]2C1 (single isomer, unassigned) [Compound Z30-2]"
–,–,–,3760,15,5,C=CC(=O)N1CCN2c3nc(=O)n(-c4ccccc4C(C)C)c4cc(-c5c(C)ccc6[nH]ncc56)c(Cl)c(c34)OC[C@@H]2C1 [Compound Z20]
> 10000,358,44,–,–,–,"C=CC(=O)N1CCN2c3nc(=O)n(-c4c(C)ccnc4C(C)C)c4cc(-c5c(O)cccc5F)c(Cl)c(c34)OC[C@H]2C1 (single isomer, unassigned) [Compound Z29-4]"
–,–,–,–,444,–,C=CC(=O)N1CCN2c3nc(=O)n(-c4cccnc4C(C)C)c4cc(-c5c(C)ccc6[nH]ncc56)c(Cl)c(c34)OC[C@@H]2C1 [Compound Z39]
2670,51,26,–,–,–,"C=CC(=O)N1CCN2c3nc(=O)n(-c4ccccc4C(C)C)c4cc(-c5c(C)ccc6[nH]ncc56)c(Cl)c(c34)OC[C@@H]2C1 (single isomer, unassigned) [Compound Z20-4]"
–,–,–,> 30000,48,47,"Cc1ccnc(C(C)C)c1-n1c(=O)nc2c3c(c(Cl)c(-c4ccccc4F)nc31)OC[C@H]1CN(C(=O)/C=C/CN(C)C)CCN21 (single isomer, unassigned) [Compound Z237-2]"
–,–,–,> 10000,9,7,C=CC(=O)N1CCN2c3nc(=O)n(-c4c(C)ccnc4C(C)C)c4nc(-c5ccccc5OC(F)(F)F)c(Cl)c(c34)OC[C@@H]2C1 [Compound Z64]
–,–,–,> 10000,20,5,C=CC(=O)N1CCN2c3nc(=O)n(-c4c(C)ccnc4C(C)C)c4nc(-c5ccccc5F)c(Cl)c(c34)OC[C@@H]2C1 [Compound Z46]
12200,83,27,–,–,–,"C=CC(=O)N1CCN2c3nc(=O)n(-c4c(C)ccnc4C4CC4)c4nc(-c5ccccc5F)c(Cl)c(c34)OC[C@H]2C1 (single isomer, unassigned) [Compound Z102-2]"
22200,20,17,–,–,–,"C=CC(=O)N1CCN2c3nc(=O)n(-c4c(C)ccnc4C(C)C)c4cc(-c5c(O)cccc5F)cc(c34)OC[C@@H]2C1 (single isomer, unassigned) [Compound Z15-1]"
–,–,–,12800,33,37,"C=CC(=O)N1CCN2c3nc(=O)n(C4CC4)c4cc(-c5c(C)ccc6[nH]ncc56)c(Cl)c(c34)OC[C@@H]2C1 (single isomer, unassigned) [Compound Z17-2]"
–,–,–,> 10000,26,9,C=CC(=O)N1CCN2c3nc(=O)n(-c4c(C)ccnc4C(C)C)c4nc(-c5cc(F)ccc5O)c(Cl)c(c34)OC[C@@H]2C1 [Compound Z55]
–,–,–,> 10000,26,6,C=CC(=O)N1CCN2c3nc(=O)n(-c4c(C)ccnc4C(C)C)c4nc(-c5cc(Cl)ccc5F)c(Cl)c(c34)OC[C@@H]2C1 [Compound Z59]
–,–,2,19700,4,–,"[2H]C([2H])([2H])Oc1cccc(F)c1-c1nc2c3c(nc(=O)n2-c2c(C)ccnc2C(C)C)N2CCN(C(=O)C=C)C[C@@H]2COc3c1F (single isomer, unassigned) [Compound Z100-1]"
–,–,–,> 10000,2,1,C=CC(=O)N1CCN2c3nc(=O)n(-c4c(C(C)C)ncnc4C(C)C)c4nc(-c5c(O)cccc5F)c(F)c(c34)OC[C@H]2C1 [Compound Z98]
–,–,–,> 10000,344,318,C=CC(=O)N1CCN2c3nc(=O)n(-c4c(C)ccnc4C(C)C)c4cc(-c5cccnc5N)c(Cl)c(c34)OC[C@H]2C1 [Compound Z41]
–,–,–,> 10000,23,4,"C=CC(=O)N1CCN2c3nc(=O)n(-c4c(C)ccnc4C(C)C)c4nc(-c5c(F)ccc(Cl)c5O)c(Cl)c(c34)OC[C@@H]2C1 [Compound Z52, (5 aS)-7-acryloyl-3-chloro-2-(3-chloro-6-fluoro-2-hydroxyphenyl)-12-(2-isopropyl-4-methylpyridin-3-yl)-5,5a,6,7,8,9-hexahydro-4-oxo-1,7,9a,10,12-pentazabenzo[4,5]cyclohepta[1,2,3-de]naphthalen-11 (12H)-one]"
–,–,–,> 30000,7,4,C=CC(=O)N1CCN2c3nc(=O)n(-c4c(C)ncnc4C4CC4)c4nc(-c5cccc(F)c5F)c(Cl)c(c34)OC[C@H]2C1 [Compound Z106]
> 10000,3,3,–,–,–,"C=CC(=O)N1CCN2c3nc(=O)n(-c4c(C)ncnc4C(C)C)c4nc(-c5c(O)cccc5F)c(F)c(c34)OC[C@H]2C1 (single isomer, unassigned) [Compound Z101-2]"
–,–,–,12300,25,47,C=CC(=O)N1CCN2c3nc(=O)n(-c4c(C)ccnc4C(C)C)c4cc(-c5c(O)cccc5F)c(Cl)c(c34)OC[C@@H]2C1 [Compound Z31]
> 10000,6,5,–,–,–,"C=CC(=O)N1CCN2c3nc(=O)n(-c4c(C)ccnc4C(C)C)c4cc(-c5c(O)cccc5F)c(Cl)c(c34)OC[C@H]2C1 (single isomer, unassigned) [Compound Z29-2]"
–,–,–,22900,55,63,C=CC(=O)N1CCN2c3nc(=O)n(C4CC4)c4cc(-c5c(C)ccc6[nH]ncc56)c(Cl)c(c34)OC[C@@H]2C1 [Compound Z17]
–,4,4,13300,–,–,"C=CC(=O)N1CCN2c3nc(=O)n(-c4c(C)ccnc4C4CC4)c4nc(-c5ccccc5F)c(Cl)c(c34)OC[C@H]2C1 (single isomer, unassigned) [Compound Z102-1]"
–,–,–,> 10000,9,3,C=CC(=O)N1CCN2c3nc(=O)n(-c4c(C)ccnc4C(C)C)c4nc(-c5c(F)cccc5F)c(Cl)c(c34)OC[C@@H]2C1 [Compound Z68]
> 10000,0.5,0.6,–,–,–,"C=CC(=O)N1CCN2c3nc(=O)n(-c4ccccc4C(C)C)c4cc(-c5c(C)ccc6[nH]ncc56)c(Cl)c(c34)OC[C@@H]2C1 (single isomer, unassigned) [Compound Z20-3]"
25000,78,65,–,–,–,"C=CC(=O)N1CCN2c3nc(=O)n(-c4c(C)ccnc4C(C)C)c4cc(-c5c(C)ccc6[nH]ncc56)c(Cl)c(c34)OC[C@H]2C1 (single isomer, unassigned) [Compound Z30-1]"
12000,–,25,–,24,–,"C=CC(=O)N1CCN2c3nc(=O)n(-c4c(C)ccnc4C(C)C)c4cc(-c5c(C)ccc6[nH]ncc56)cc(c34)OC[C@@H]2C1 (single isomer, unassigned) [Compound Z19-2]"
–,56,42,> 10000,–,–,"C=CC(=O)N1CCN2c3nc(=O)n(-c4c(C)ncnc4C(C)C)c4nc(-c5c(O)cccc5F)c(F)c(c34)OC[C@H]2C1 (single isomer, unassigned) [Compound Z101-1]"
12200,17,10,–,–,–,"C=CC(=O)N1CCN2c3nc(=O)n(-c4ccccc4C(C)C)c4cc(-c5c(C)ccc6[nH]ncc56)c(Cl)c(c34)OC[C@@H]2C1 (single isomer, unassigned) [Compound Z20-1]"
